# Results taken from patent publication US20230150970A1, “AMINOPYRIMIDINE DERIVATIVES AND THEIR USE AS ARYL HYDROCARBON RECEPTOR MODULATORS” (DONG-A ST CO., LTD., priority 2020, published 2023).
# pEC50, pIC50: −log10 of the molar value. Read-outs that look alike come from different tables or passages of the source.
# Experiments:
# [1] = biological target: T1, AhR (Homo sapiens, UniProt P35869); assay: In Vitro Assay 3: XRE-luciferase reporter assay, agonism in human cell line (HepG2); assay type: cell-based; parameters: endogenous in cells; host or cells: HepG2; details: HepG2, tryptophan free medium, 6 hours, no agonist, read-out: Assay 3: AhR-Luc Human Agonism (EC50)
# T1 sequence (P35869 11-848): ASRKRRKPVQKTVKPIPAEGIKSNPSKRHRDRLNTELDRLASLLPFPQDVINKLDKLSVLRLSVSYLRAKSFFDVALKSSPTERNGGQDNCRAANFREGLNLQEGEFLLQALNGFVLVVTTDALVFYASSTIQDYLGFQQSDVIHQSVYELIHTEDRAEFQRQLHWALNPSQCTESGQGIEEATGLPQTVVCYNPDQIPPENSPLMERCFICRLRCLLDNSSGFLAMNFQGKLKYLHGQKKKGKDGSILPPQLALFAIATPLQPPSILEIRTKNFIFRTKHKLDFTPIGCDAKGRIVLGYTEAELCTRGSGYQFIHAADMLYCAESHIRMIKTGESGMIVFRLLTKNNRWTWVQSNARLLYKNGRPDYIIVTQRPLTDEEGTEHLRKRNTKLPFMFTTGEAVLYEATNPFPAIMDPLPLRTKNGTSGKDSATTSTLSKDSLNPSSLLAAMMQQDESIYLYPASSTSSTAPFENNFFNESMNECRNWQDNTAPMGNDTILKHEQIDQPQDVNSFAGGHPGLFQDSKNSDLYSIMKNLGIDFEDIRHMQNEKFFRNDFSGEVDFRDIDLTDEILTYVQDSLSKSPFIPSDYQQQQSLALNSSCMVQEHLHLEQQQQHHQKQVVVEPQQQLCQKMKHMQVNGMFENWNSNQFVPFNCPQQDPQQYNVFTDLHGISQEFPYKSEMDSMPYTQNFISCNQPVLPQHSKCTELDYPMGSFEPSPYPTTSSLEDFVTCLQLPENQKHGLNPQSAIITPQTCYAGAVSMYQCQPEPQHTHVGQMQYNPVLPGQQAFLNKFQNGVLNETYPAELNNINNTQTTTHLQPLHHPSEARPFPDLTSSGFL
# Method: In Vitro Assay 3: Agonism in Human Cell Line
# HepG2 (human hepatoma cell line) cells co-transfected with XRE-Luc and Nano-Luc plasmids were plated in tryptophan free medium containing 1% of dialyzed fetal bovine serum and incubated overnight at 37° C. in a CO2 incubator. After 24 hours, cells were treated for 6 hours with test compounds or not. […] As a positive control, cells were incubated with TCDD.
# [2] = biological target: T1, AhR; assay: In Vitro Assay 1: XRE-luciferase reporter assay, antagonism in human cell line (HepG2); details: for IC50: Assay 1: AhR-Luc Human Antagonism (IC50, nM), 6 hours; for pIC50: read-out: Assay 1: AhR-Luc Human Antagonism (IC50), values marked *: kynurenine 50 μM, 6 hours
# [3] = values marked *: kynurenine 50 μM
# [4] = unmarked values: kynurenine 200 μM
"IC50 [2, 4]",Compound,also measured
< 10 nM,"CC(O)C(O)C(=O)N1CCN(c2cc(-c3ccc(Cl)cc3)nc(-c3cccnc3)n2)CC1 (centres unmarked) [Example 364, 1-(4-(6-(4-chlorophenyl)-2-(pyridin-3-yl)pyrimidin-4-yl)piperazin-1-yl)-2,3-dihydroxybutan-1-one]",–
100 to 1000 nM,"CC1CN(c2cc(-c3ccc(Cl)cc3)nc(-c3cccnc3)n2)CC(=O)N1 (centres unmarked) [Example 365, 4-(6-(4-chlorophenyl)-2-(pyridin-3-yl)pyrimidin-4-yl)-6-methylpiperazin-2-one]",–
> 1000 nM,"O=C1COCCN1c1ccc(-c2cc(N3CC[C@H](O)C3)nc(-c3cccnc3)n2)cc1 [Example 367, (S)-4-(4-(6-(3-hydroxypyrrolidin-1-yl)-2-(pyridin-3-yl)pyrimidin-4-yl)phenyl)morpholin-3-one]",–
10 to 100 nM,"O=S(=O)(CCO)N1CCN(c2cc(-c3ccc(Cl)cc3)nc(-c3cnsc3)n2)CC1 [Example 368, 2-((4-(6-(4-chlorophenyl)-2-(isothiazol-4-yl)pyrimidin-4-yl)piperazin-1-yl)sulfonyl)ethanol]",–
10 to 100 nM,"O=S(=O)(CC(O)CO)N1CCN(c2cc(-c3ccc(Cl)cc3)nc(-c3cccnc3)n2)CC1 (centres unmarked) [Example 369, 3-((4-(6-(4-chlorophenyl)-2-(pyridin-3-yl)pyrimidin-4-yl)piperazin-1-yl)sulfonyl)propane-1,2-diol]",–
10 to 100 nM,"O=S(=O)(CCO)N1CCN(c2cc(-c3ccc(C(F)(F)F)cc3)nc(-c3cnsc3)n2)CC1 [Example 370, 2-((4-(2-(isothiazol-4-yl)-6-(4-(trifluoromethyl)phenyl)pyrimidin-4-yl)piperazin-1-yl)sulfonyl)ethanol]",–
100 to 1000 nM,"OCC[C@H]1CN(c2cc(-c3ccc(Cl)cc3)nc(-c3cccnc3)n2)CCN1 [Example 371, (S)-2-(4-(6-(4-chlorophenyl)-2-(pyridin-3-yl)pyrimidin-4-yl)piperazin-2-yl)ethanol]",–
100 to 1000 nM,"O=C1COCCN1c1ccc(-c2cc(N3CC[C@H](O)C3)nc(-c3cccnc3)n2)cn1 [Example 372, (S)-4-(5-(6-(3-hydroxypyrrolidin-1-yl)-2-(pyridin-3-yl)pyrimidin-4-yl)pyridin-2-yl)morpholin-3-one]",–
10 to 100 nM,"Oc1ncccc1-c1nc(-c2ccc(N3CCOCC3)c(F)c2)cc(N2CC[C@H](O)C2)n1 [Example 373, (S)-3-(4-(3-fluoro-4-morpholinophenyl)-6-(3-hydroxypyrrolidin-1-yl)pyrimidin-2-yl)pyridin-2-ol]",–
> 1000 nM,"CN(C)CCNc1ccc(-c2cc(N3CC[C@H](O)C3)nc(-c3cccnc3)n2)cc1 [Example 374, (S)-1-(6-(4-((2-(dimethylamino)ethyl)amino)phenyl)-2-(pyridin-3-yl)pyrimidin-4-yl)pyrrolidin-3-ol]",–
> 1000 nM,"CN(C)CCOc1ccc(-c2cc(N3CC[C@H](O)C3)nc(-c3cccnc3)n2)cc1 [Example 375, (S)-1-(6-(4-(2-(dimethylamino)ethoxy)phenyl)-2-(pyridin-3-yl)pyrimidin-4-yl)pyrrolidin-3-ol]",–
100 to 1000 nM,"OCCNc1ccc(-c2cc(N3CC[C@H](O)C3)nc(-c3cccnc3)n2)cc1 [Example 376, (S)-1-(6-(4-((2-hydroxyethyl)amino)phenyl)-2-(pyridin-3-yl)pyrimidin-4-yl)pyrrolidin-3-ol]",–

# Second part, the compound before the results:
Compound,"IC50 [2, 4]",also measured
"C[C@@H]1CN(c2cc(-c3ccc(Cl)cc3)nc(-c3cccnc3)n2)C[C@H](C)O1 [Example 70, cis-4-(6-(4-chlorophenyl)-2-(pyridin-3-yl)pyrimidin-4-yl)-2,6-dimethylmorpholine]",–,"pEC50 ([1]; number of the cell): 6.12; IC50 [2, 3]: > 1000 nM"
"Cc1cccc(N2CCN(c3cc(-c4ccc(Cl)cc4)nc(-c4cccnc4)n3)CC2)c1C [Example 118, 4-(4-chlorophenyl)-6-(4-(2,3-dimethylphenyl)piperazin-1-yl)-2-(pyridin-3-yl)pyrimidine]",–,"pEC50 ([1]; number of the cell): 5.80; IC50 [2, 3]: 10 to 100 nM"
"C[C@@H](O)[C@@H](C)Nc1cc(-c2ccc(Cl)cc2)nc(-c2cccnc2)n1 [Example 144, (2R,3R)-3-((6-(4-chlorophenyl)-2-(pyridin-3-yl)pyrimidin-4-yl)amino)butan-2-ol]",–,"pEC50 ([1]; number of the cell): 7.25; IC50 [2, 3]: 10 to 100 nM"
"COCCN1CCC(CNc2cc(-c3ccc(Cl)cc3)nc(-c3cccnc3)n2)CC1 [Example 170, 6-(4-chlorophenyl)-N-((1-(2-methoxyethyl)piperidin-4-yl)methyl)-2-(pyridin-3-yl)pyrimidin-4-amine]",–,"pEC50 ([1]; class in brackets of the cell): < 5.00; pEC50 ([1]; number of the cell): < 4.52; IC50 [2, 3]: 10 to 100 nM"
"CC(CO)N1CCN(c2cc(-c3ccc(Cl)cc3)nc(-c3cccnc3)n2)CC1 (centres unmarked) [Example 224, 2-(4-(6-(4-chlorophenyl)-2-(pyridin-3-yl)pyrimidin-4-yl)piperazin-1-yl)propan-1-ol]",–,"pEC50 ([1]; class in brackets of the cell): < 5.00; pEC50 ([1]; number of the cell): < 4.52; IC50 [2, 3]: < 10 nM"
"Cn1cc(-c2nc(-c3ccc(C(F)(F)F)cc3)cc(N3CCN(S(=O)(=O)CCO)CC3)n2)cn1 [Example 353, 2-((4-(2-(1-methyl-1H-pyrazol-4-yl)-6-(4-(trifluoromethyl)phenyl)pyrimidin-4-yl)piperazin-1-yl)sulfonyl)ethanol]",10 to 100 nM,–
"CN(C)C1CN(c2cc(-c3ccc(Cl)cc3)nc(-c3cccnc3)n2)CCC1O (centres unmarked) [Example 354, 1-(6-(4-chlorophenyl)-2-(pyridin-3-yl)pyrimidin-4-yl)-3-(dimethylamino)piperidin-4-ol]",> 1000 nM,–
"CN(C)C1CC(O)CN(c2cc(-c3ccc(Cl)cc3)nc(-c3cccnc3)n2)C1 (centres unmarked) [Example 355, 1-(6-(4-chlorophenyl)-2-(pyridin-3-yl)pyrimidin-4-yl)-5-(dimethylamino)piperidin-3-ol]",100 to 1000 nM,–
"Cn1cc(-c2nc(-c3ccc(Cl)cc3)cc(N3CCC(CO)(S(C)(=O)=O)CC3)n2)cn1 [Example 356, (1-(6-(4-chlorophenyl)-2-(1-methyl-1H-pyrazol-4-yl)pyrimidin-4-yl)-4-(methylsulfonyl)piperidin-4-yl)methanol]",10 to 100 nM,–
"Cn1cc(-c2nc(-c3ccc(C(F)(F)F)cc3)cc(N3CCC(CO)(S(C)(=O)=O)CC3)n2)cn1 [Example 357, (1-(2-(1-methyl-1H-pyrazol-4-yl)-6-(4-(trifluoromethyl)phenyl)pyrimidin-4-yl)-4-(methylsulfonyl)piperidin-4-yl)methanol]",< 10 nM,–
"CN(C)C1CN(c2cc(-c3ccc(Cl)cc3)nc(-c3cccnc3)n2)CCC1CO (centres unmarked) [Example 358, (1-(6-(4-chlorophenyl)-2-(pyridin-3-yl)pyrimidin-4-yl)-3-(dimethylamino)piperidin-4-yl)methanol]",100 to 1000 nM,–
"CC1CN(S(=O)(=O)CCO)CCN1c1cc(-c2ccc(Cl)cc2)nc(-c2cccnc2)n1 (centres unmarked) [Example 359, 2-((4-(6-(4-chlorophenyl)-2-(pyridin-3-yl)pyrimidin-4-yl)-3-methylpiperazin-1-yl)sulfonyl)ethan-1-ol]",10 to 100 nM,–
"OCCNC1CCN(c2cc(-c3ccc(Cl)cc3)nc(-c3cccnc3)n2)CC1 [Example 360, 2-((1-(6-(4-chlorophenyl)-2-(pyridin-3-yl)pyrimidin-4-yl)piperidin-4-yl)amino)ethanol]",> 1000 nM,–
"O=S(=O)(CCCO)N1CCN(c2cc(-c3ccc(Cl)cc3)nc(-c3cccnc3)n2)CC1 [Example 362, 3-((4-(6-(4-chlorophenyl)-2-(pyridin-3-yl)pyrimidin-4-yl)piperazin-1-yl)sulfonyl)propan-1-ol]",< 10 nM,–
"O=C(CC(O)CO)N1CCN(c2cc(-c3ccc(Cl)cc3)nc(-c3cccnc3)n2)CC1 (centres unmarked) [Example 363, 1-(4-(6-(4-chlorophenyl)-2-(pyridin-3-yl)pyrimidin-4-yl)piperazin-1-yl)-3,4-dihydroxybutan-1-one]",< 10 nM,–
(R)-(4-(6-(4-chlorophenyl)-2-(pyridin-3-yl)pyrimidin-4-yl)piperazin-2-yl)methanol [Example 79],–,pIC50 [2]: < 6.00
Cis-4-((6-(4-chlorophenyl)-2-(pyridin-3-yl)pyrimidin-4-yl)amino)cyclohexan-1-ol [Example 216],–,pIC50 [2]: 7.00 to 8.00
Cis-(4-((6-(4-chlorophenyl)-2-(pyridin-3-yl)pyrimidin-4-yl)amino)cyclohexyl)methanol [Example 215],–,pIC50 [2]: 7.00 to 8.00
Trans-4-((6-(4-chlorophenyl)-2-(pyridin-3-yl)pyrimidin-4-yl)amino)cyclohexan-1-ol [Example 217],–,pIC50 [2]: 7.00 to 8.00
